# From article PMC4620497 (Scientific Reports, 2015)
# Where two headings read alike, the source gives them in different places.
# Experiments:
# [1] = target: T1, ABL1(F317I)-nonphosphorylated (Homo sapiens, UniProt P00519, F317I); assay: KINOMEscan panel screen; format: binding; conditions: read-out: Percent Control(%)
# T1 construct: purchased DiscoveRx KINOMEscan (Ambit Biosciences)
# [2] = target: T2, ABL1(F317L)-nonphosphorylated (Homo sapiens, UniProt P00519, F317L); assay: KINOMEscan panel screen; format: binding; conditions: read-out: Percent Control(%)
# T2 construct: purchased DiscoveRx KINOMEscan (Ambit Biosciences)
# [3] = target: T3, ABL1(Q252H)-phosphorylated (Homo sapiens, UniProt P00519, Q252H); assay: KINOMEscan panel screen; format: binding; conditions: read-out: Percent Control(%)
# T3 construct: purchased DiscoveRx KINOMEscan (Ambit Biosciences)
# [4] = target: T4, ABL1(T315I)-nonphosphorylated (Homo sapiens, UniProt P00519, T315I); assay: KINOMEscan panel screen; format: binding; conditions: read-out: Percent Control(%)
# T4 construct: purchased DiscoveRx KINOMEscan (Ambit Biosciences)
# ALK = target: T5, ALK (Homo sapiens, UniProt Q9UM73); assay: KINOMEscan panel screen; format: binding; conditions: read-out: Percent Control(%)
# T5 construct: purchased DiscoveRx KINOMEscan (Ambit Biosciences)
# DAPK3 = target: T6, DAPK3 (Homo sapiens, UniProt O43293); assay: KINOMEscan panel screen; format: binding; conditions: read-out: Percent Control(%)
# T6 construct: purchased DiscoveRx KINOMEscan (Ambit Biosciences)
# EPHA2 = target: T7, EPHA2 (Homo sapiens, UniProt P29317); assay: KINOMEscan panel screen; format: binding; conditions: read-out: Percent Control(%)
# T7 construct: purchased DiscoveRx KINOMEscan (Ambit Biosciences)
# T7 sequence (P29317 24-976): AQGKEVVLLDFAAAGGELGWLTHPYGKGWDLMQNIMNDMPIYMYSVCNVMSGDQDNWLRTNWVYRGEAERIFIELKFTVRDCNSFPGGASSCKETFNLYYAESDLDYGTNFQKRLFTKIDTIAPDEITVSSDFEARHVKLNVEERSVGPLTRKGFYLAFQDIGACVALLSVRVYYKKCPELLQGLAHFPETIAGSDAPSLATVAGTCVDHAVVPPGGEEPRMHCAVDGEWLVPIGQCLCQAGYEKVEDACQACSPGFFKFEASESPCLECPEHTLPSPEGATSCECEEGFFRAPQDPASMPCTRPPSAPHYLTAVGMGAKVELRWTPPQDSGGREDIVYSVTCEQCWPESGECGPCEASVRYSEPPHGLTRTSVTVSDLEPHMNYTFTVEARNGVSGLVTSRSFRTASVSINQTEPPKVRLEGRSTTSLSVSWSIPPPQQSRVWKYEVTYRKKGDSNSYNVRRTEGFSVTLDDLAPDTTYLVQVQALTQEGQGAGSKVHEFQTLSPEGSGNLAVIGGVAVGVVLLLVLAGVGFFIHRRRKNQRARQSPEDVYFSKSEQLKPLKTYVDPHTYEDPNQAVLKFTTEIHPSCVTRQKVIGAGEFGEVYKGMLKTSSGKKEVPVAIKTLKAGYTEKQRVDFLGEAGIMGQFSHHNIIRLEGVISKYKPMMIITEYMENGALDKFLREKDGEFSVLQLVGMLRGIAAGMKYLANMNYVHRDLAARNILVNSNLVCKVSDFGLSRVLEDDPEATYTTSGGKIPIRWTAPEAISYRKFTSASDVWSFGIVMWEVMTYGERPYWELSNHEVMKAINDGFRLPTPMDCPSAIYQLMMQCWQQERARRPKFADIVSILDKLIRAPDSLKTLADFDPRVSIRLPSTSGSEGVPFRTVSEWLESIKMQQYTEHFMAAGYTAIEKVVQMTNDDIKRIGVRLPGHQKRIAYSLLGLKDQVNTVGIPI
# EPHB3 = target: T8, EPHB3 (Homo sapiens, UniProt P54753); assay: KINOMEscan panel screen; format: binding; conditions: read-out: Percent Control(%)
# T8 construct: purchased DiscoveRx KINOMEscan (Ambit Biosciences)
# ERK5 = target: T9, ERK5 (Homo sapiens, UniProt Q13164); assay: KINOMEscan panel screen; format: binding; conditions: read-out: Percent Control(%)
# T9 construct: purchased DiscoveRx KINOMEscan (Ambit Biosciences)
# HIPK1 = target: T10, HIPK1 (Homo sapiens, UniProt Q86Z02); assay: KINOMEscan panel screen; format: binding; conditions: read-out: Percent Control(%)
# T10 construct: purchased DiscoveRx KINOMEscan (Ambit Biosciences)
# HUNK = target: T11, HUNK (Homo sapiens, UniProt P57058); assay: KINOMEscan panel screen; format: binding; conditions: read-out: Percent Control(%)
# T11 construct: purchased DiscoveRx KINOMEscan (Ambit Biosciences)
# IKK-alpha = target: T12, IKK-alpha (Homo sapiens, UniProt O15111); assay: KINOMEscan panel screen; format: binding; conditions: read-out: Percent Control(%)
# T12 construct: purchased DiscoveRx KINOMEscan (Ambit Biosciences)
# KIT(A829P) = target: T13, KIT(A829P) (Homo sapiens, UniProt P10721, A829P); assay: KINOMEscan panel screen; format: binding; conditions: read-out: Percent Control(%)
# T13 construct: purchased DiscoveRx KINOMEscan (Ambit Biosciences)
# T13 sequence (P10721 546-976 A829P limits assumed): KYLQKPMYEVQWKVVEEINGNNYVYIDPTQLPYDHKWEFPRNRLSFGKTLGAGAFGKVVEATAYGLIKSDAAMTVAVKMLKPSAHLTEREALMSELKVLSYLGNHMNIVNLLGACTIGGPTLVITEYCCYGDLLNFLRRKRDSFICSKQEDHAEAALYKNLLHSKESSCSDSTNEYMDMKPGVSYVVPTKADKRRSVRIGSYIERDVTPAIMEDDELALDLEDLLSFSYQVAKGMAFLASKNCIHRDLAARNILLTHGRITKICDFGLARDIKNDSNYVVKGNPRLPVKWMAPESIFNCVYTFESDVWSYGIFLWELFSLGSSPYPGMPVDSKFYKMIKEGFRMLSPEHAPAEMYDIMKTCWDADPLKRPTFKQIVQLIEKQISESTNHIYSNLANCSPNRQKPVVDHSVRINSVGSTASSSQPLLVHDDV
# KIT-autoinhibited = target: T14, KIT-autoinhibited (Homo sapiens, UniProt P10721); assay: KINOMEscan panel screen; format: binding; conditions: read-out: Percent Control(%)
# T14 construct: purchased DiscoveRx KINOMEscan (Ambit Biosciences)
# T14 sequence (P10721 546-976 limits assumed): as the sequence (P10721 546-976 A829P limits assumed) above, with P284A counted along it
# MARK1 = target: T15, MARK1 (Homo sapiens, UniProt Q9P0L2); assay: KINOMEscan panel screen; format: binding; conditions: read-out: Percent Control(%)
# T15 construct: purchased DiscoveRx KINOMEscan (Ambit Biosciences)
# MLK2 = target: T16, MLK2 (Homo sapiens, UniProt Q02779); assay: KINOMEscan panel screen; format: binding; conditions: read-out: Percent Control(%)
# T16 construct: purchased DiscoveRx KINOMEscan (Ambit Biosciences)
# T16 sequence (Q02779 whole entry): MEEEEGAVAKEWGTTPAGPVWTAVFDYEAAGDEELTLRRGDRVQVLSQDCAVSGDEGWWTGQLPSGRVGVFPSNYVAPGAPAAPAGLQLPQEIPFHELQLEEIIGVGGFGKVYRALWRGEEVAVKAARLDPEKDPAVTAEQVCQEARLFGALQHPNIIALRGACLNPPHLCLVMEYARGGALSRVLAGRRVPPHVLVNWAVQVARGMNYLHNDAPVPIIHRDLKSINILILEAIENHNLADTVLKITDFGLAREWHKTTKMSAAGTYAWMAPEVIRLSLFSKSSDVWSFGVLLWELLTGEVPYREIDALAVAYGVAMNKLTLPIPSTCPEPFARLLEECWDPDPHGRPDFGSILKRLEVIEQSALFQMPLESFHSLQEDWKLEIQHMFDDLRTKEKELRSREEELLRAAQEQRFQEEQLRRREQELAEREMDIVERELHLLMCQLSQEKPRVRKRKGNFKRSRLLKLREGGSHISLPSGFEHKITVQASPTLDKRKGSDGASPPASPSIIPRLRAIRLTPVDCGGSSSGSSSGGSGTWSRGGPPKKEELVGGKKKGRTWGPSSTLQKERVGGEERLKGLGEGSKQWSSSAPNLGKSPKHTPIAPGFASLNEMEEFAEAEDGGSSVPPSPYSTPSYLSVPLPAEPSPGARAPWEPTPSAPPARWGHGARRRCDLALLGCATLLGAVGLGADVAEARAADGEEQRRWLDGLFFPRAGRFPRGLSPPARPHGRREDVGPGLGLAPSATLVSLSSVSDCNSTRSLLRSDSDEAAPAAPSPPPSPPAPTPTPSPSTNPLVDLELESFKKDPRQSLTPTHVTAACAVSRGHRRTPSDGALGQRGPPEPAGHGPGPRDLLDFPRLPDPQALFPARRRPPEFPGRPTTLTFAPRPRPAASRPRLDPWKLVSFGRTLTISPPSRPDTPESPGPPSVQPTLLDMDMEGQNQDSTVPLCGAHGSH
# MST1R = target: T17, MST1R (Homo sapiens, UniProt Q04912); assay: KINOMEscan panel screen; format: binding; conditions: read-out: Percent Control(%)
# T17 construct: purchased DiscoveRx KINOMEscan (Ambit Biosciences)
# NEK2 = target: T18, NEK2 (Homo sapiens, UniProt P51955); assay: KINOMEscan panel screen; format: binding; conditions: read-out: Percent Control(%)
# T18 construct: purchased DiscoveRx KINOMEscan (Ambit Biosciences)
# NEK9 = target: T19, NEK9 (Homo sapiens, UniProt Q8TD19); assay: KINOMEscan panel screen; format: binding; conditions: read-out: Percent Control(%)
# T19 construct: purchased DiscoveRx KINOMEscan (Ambit Biosciences)
# T19 sequence (Q8TD19 whole entry): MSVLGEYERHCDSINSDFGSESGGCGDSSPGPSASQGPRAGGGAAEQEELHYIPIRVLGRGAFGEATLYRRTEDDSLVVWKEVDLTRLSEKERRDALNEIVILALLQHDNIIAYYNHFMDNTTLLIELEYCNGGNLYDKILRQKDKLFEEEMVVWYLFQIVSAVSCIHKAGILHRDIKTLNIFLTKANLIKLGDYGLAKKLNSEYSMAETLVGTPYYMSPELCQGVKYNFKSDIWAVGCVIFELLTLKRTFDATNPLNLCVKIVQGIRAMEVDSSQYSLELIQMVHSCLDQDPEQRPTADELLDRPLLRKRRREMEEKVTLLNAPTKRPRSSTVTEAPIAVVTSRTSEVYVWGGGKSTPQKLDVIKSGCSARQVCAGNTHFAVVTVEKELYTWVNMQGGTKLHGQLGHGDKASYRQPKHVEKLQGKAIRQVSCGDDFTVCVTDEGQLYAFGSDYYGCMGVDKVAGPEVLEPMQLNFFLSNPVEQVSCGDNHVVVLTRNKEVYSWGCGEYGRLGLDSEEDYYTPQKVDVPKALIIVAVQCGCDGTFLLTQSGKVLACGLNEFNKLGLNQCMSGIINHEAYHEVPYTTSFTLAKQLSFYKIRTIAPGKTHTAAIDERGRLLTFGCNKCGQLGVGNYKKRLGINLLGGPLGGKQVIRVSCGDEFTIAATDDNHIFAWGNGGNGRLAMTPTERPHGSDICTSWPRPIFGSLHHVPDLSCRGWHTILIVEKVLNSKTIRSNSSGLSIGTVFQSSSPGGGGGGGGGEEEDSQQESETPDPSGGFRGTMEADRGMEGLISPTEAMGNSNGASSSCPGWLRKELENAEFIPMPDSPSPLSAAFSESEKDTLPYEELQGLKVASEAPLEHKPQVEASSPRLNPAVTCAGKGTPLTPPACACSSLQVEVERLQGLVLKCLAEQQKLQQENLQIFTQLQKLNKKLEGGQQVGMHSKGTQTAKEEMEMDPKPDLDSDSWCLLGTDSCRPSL
# PDGFRA = target: T20, PDGFRA (Homo sapiens, UniProt P16234); assay: KINOMEscan panel screen; format: binding; conditions: read-out: Percent Control(%)
# T20 construct: purchased DiscoveRx KINOMEscan (Ambit Biosciences)
# PIK3C2B = target: T21, PIK3C2B (Homo sapiens, UniProt O00750); assay: KINOMEscan panel screen; format: binding; conditions: read-out: Percent Control(%)
# T21 construct: purchased DiscoveRx KINOMEscan (Ambit Biosciences)
# PRKCE = target: T22, PRKCE (Homo sapiens, UniProt Q02156); assay: KINOMEscan panel screen; format: binding; conditions: read-out: Percent Control(%)
# T22 construct: purchased DiscoveRx KINOMEscan (Ambit Biosciences)
# T22 sequence (Q02156 whole entry): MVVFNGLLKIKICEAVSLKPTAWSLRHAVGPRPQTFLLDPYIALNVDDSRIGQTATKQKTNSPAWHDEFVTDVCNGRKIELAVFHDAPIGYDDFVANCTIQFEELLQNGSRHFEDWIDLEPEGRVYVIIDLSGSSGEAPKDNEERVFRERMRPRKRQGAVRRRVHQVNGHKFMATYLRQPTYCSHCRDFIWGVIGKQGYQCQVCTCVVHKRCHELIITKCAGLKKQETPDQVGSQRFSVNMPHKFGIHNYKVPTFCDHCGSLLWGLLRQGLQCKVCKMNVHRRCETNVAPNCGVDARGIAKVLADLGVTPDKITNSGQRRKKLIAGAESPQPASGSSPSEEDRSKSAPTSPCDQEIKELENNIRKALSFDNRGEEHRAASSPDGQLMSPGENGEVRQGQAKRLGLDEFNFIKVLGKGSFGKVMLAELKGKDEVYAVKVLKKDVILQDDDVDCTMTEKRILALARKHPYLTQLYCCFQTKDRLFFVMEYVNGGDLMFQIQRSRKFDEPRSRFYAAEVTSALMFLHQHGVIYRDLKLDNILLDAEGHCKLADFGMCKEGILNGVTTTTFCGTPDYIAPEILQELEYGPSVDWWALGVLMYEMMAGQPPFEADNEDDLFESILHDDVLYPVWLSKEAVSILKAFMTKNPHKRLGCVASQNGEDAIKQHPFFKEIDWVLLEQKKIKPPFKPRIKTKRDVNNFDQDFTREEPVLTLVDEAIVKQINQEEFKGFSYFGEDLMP
# PRKG1 = target: T23, PRKG1 (Homo sapiens, UniProt Q13976); assay: KINOMEscan panel screen; format: binding; conditions: read-out: Percent Control(%)
# T23 construct: purchased DiscoveRx KINOMEscan (Ambit Biosciences)
# T23 sequence (Q13976 whole entry): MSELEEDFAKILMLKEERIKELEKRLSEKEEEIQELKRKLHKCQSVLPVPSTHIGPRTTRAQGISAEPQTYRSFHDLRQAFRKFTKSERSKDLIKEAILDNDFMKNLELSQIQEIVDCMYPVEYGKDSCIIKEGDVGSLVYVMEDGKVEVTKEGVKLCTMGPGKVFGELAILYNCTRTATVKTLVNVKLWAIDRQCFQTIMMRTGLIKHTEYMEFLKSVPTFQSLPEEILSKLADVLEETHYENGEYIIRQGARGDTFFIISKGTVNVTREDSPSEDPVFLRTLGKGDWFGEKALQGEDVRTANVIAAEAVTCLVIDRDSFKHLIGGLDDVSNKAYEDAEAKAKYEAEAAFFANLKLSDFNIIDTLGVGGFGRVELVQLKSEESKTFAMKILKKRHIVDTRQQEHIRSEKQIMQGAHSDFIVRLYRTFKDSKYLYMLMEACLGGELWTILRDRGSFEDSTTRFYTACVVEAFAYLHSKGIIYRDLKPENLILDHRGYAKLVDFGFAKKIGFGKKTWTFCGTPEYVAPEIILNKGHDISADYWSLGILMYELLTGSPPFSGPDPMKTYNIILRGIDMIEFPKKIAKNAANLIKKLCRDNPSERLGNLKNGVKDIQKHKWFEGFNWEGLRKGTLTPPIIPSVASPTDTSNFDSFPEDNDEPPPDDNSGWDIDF
# [5] = target: T24, RSK4(Kin.Dom.1-N-terminal) (Homo sapiens, UniProt Q9UK32); assay: KINOMEscan panel screen; format: binding; conditions: read-out: Percent Control(%)
# T24 construct: RSK4(Kin.Dom.1-N-terminal); purchased DiscoveRx KINOMEscan (Ambit Biosciences)
# T24 sequence (Q9UK32 73-330 limits assumed): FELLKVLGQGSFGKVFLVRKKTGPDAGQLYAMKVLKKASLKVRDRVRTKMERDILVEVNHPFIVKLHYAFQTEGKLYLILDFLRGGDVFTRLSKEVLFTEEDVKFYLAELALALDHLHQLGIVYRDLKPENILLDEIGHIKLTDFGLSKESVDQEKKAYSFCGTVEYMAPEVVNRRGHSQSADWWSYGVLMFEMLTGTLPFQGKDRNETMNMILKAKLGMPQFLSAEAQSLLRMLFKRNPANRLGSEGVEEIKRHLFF
# SIK2 = target: T25, SIK2 (Homo sapiens, UniProt Q9H0K1); assay: KINOMEscan panel screen; format: binding; conditions: read-out: Percent Control(%)
# T25 construct: purchased DiscoveRx KINOMEscan (Ambit Biosciences)
# STK35 = target: T26, STK35 (Homo sapiens, UniProt Q8TDR2); assay: KINOMEscan panel screen; format: binding; conditions: read-out: Percent Control(%)
# T26 construct: purchased DiscoveRx KINOMEscan (Ambit Biosciences)
# SYK = target: T27, SYK (Homo sapiens, UniProt P43405); assay: KINOMEscan panel screen; format: binding; conditions: read-out: Percent Control(%)
# T27 construct: purchased DiscoveRx KINOMEscan (Ambit Biosciences)
# TIE2 = target: T28, TIE2 (Homo sapiens, UniProt Q02763); assay: KINOMEscan panel screen; format: binding; conditions: read-out: Percent Control(%)
# T28 construct: purchased DiscoveRx KINOMEscan (Ambit Biosciences)
# [6] = Pharmacokinetic assessment in rats; format: in vivo, SD rats; conditions: rat, mean; for Tmax / half-life / AUC(0-t) / Cmax / t1/2: 10 mg/kg; for AUC(0-t): read-out: AUC(0-36h)
# Procedure: Preliminary pharmacokinetic characteristics of SKLB-677 were assessed on rats with SKLB-677 at a dose of 10 mg/kg P.O. and I.V. administration. The key pharmacokinetic parameters calculated are summarized in Supplementary Table S6.
# SD rats (6 per group) were orally treated or injected intravenously with 10 mg/kg SKLB-677, followed by the collection of blood from the jugular vein into heparinized tubes at the appropriate times. The plasma was isolated by centrifugation. The plasma concentrations of SKLB-677 were determined using liquid–liquid extraction followed by high-performance liquid chromatography (HPLC) with tandem mass spectrometric detection. Noncompartmental pharmacokinetic parameters (AUC, Tmax, Cmax, and t1⁄2) were obtained from the blood concentration time profiles using DAS software.
# Supplementary Table S6. The pharmacokinetic characteristics of SKLB-677. […]
# standard deviation. t1/2: Mean half-life associat ed with the terminal slope and standard deviation.C max: Mean peak plasma concentration and standard deviation.
# Tmax: Mean time to reach max imum plasma concentration and standard dev iation. CL:
# Mean bod y clearance and standard deviation. Vss: Mean volume of distribution at steady state and standard deviation. The statistical anal ysis of data was shown as mean values and SD v alues (n= 6) .
# PLC/PRF/5 = assay: MTT cell viability assay; conditions: Homo sapiens, PLC-PRF-5, 72 h
# FLT3-D835Y = FLT3-D835Y (Homo sapiens, UniProt P36888, D835Y); assay: KINOMEscan panel screen; format: binding; design: purchased DiscoveRx KINOMEscan (Ambit Biosciences); conditions: read-out: Percent Control(%)
smiles,measurement,setting,value
"CC(C)(C)c1cc(NC(=O)Nc2ccc(Oc3ncnc4[nH]ncc34)c(F)c2)no1 [SKLB-677, 1-(4-(1H-pyrazolo[3,4-d]pyrimidin-4-yloxy)-3-fluorophenyl)-3-(5-tert-butylisoxazol-3-yl)urea]",remaining binding at 10 µM,[1],2.2%
same,remaining binding at 10 µM,[2],10%
same,remaining binding at 10 µM,[3],21%
same,remaining binding at 10 µM,[4],3%
same,remaining binding at 10 µM,ALK,4.8%
same,remaining binding at 10 µM,DAPK3,71%
same,remaining binding at 10 µM,EPHA2,1.2%
same,remaining binding at 10 µM,EPHB3,0.8%
same,remaining binding at 10 µM,ERK5,70%
same,remaining binding at 10 µM,HIPK1,68%
same,remaining binding at 10 µM,HUNK,80%
same,remaining binding at 10 µM,IKK-alpha,75%
same,remaining binding at 10 µM,KIT(A829P),15%
same,remaining binding at 10 µM,KIT-autoinhibited,1.1%
same,remaining binding at 10 µM,MARK1,78%
same,remaining binding at 10 µM,MLK2,99%
same,remaining binding at 10 µM,MST1R,42%
same,remaining binding at 10 µM,NEK2,100%
same,remaining binding at 10 µM,NEK9,54%
same,remaining binding at 10 µM,PDGFRA,0.25%
same,remaining binding at 10 µM,PIK3C2B,100%
same,remaining binding at 10 µM,PRKCE,90%
same,remaining binding at 10 µM,PRKG1,86%
same,remaining binding at 10 µM,[5],64%
same,remaining binding at 10 µM,SIK2,69%
same,remaining binding at 10 µM,STK35,0.95%
same,remaining binding at 10 µM,SYK,25%
same,remaining binding at 10 µM,TIE2,0.2%
same,clearance,"[6]; SD, plasma, iv, 10 mg/kg I.V.",0.617 mL/min/kg
same,Vd,"[6]; SD, plasma, iv, 10 mg/kg I.V., read-out: Vss (apparent volume of distribution, Vd)",0.271 L/kg
same,Tmax,"[6]; SD, plasma, iv, 10 mg/kg I.V.",0.033 h
same,half-life,"[6]; SD, plasma, iv, 10 mg/kg I.V.",305 min
same,AUC(0-t),"[6]; SD, plasma, iv, 10 mg/kg I.V.",272 µg·h/mL
same,Cmax,"[6]; SD, plasma, iv, 10 mg/kg I.V., read-out: Cmax",58200 ng/mL
same,Tmax,"[6]; SD, plasma, po, 10 mg/kg P.O.",3 h
same,half-life,"[6]; SD, plasma, po, 10 mg/kg P.O.",326 min
same,AUC(0-t),"[6]; SD, plasma, po, 10 mg/kg P.O.",176 µg·h/mL
same,Cmax,"[6]; SD, plasma, po, 10 mg/kg P.O., read-out: Cmax",12300 ng/mL
same,t1/2,[6]; 10 mg/kg I.V.,5.1 h
same,CL,[6]; 10 mg/kg P.O.,0.058 L/h/kg
same,Vss,[6]; 10 mg/kg P.O.,0.446 L/kg
same,Cmax,[6]; 10 mg/kg P.O.,12280 ng/mL
same,t1/2,[6]; 10 mg/kg P.O.,5.4 h
same,IC50,PLC/PRF/5,> 10 µM
same,remaining binding at 10 µM,FLT3-D835Y,3.2%
